According to ChEMBL document CHEMBL1149953 (Bioorg Med Chem Lett, 1996):
pIC50: −log10 of the molar value. Blank lines part the entries; values can stand above or below the molecule they belong to.

What was measured:
Rattus norvegicus [1] = assay: In vivo potency to inhibit the pressor response induced by angiotensin II (100ng/Kg, iv) in conscious normotensive rat at 24 hours after administration of 3 mg/kg, po; type: functional; settings: for inhibition in vivo at 3 mg/kg: Rattus norvegicus, po, 24 h
[2] = molecular target: T1, Type-1 angiotensin II receptor B (Rattus norvegicus, UniProt P29089); assay: In vitro ability to displace the specific binding of [125I]-A II from receptors in rat liver membrane(type 1 receptor)
T1 sequence (P29089 whole entry): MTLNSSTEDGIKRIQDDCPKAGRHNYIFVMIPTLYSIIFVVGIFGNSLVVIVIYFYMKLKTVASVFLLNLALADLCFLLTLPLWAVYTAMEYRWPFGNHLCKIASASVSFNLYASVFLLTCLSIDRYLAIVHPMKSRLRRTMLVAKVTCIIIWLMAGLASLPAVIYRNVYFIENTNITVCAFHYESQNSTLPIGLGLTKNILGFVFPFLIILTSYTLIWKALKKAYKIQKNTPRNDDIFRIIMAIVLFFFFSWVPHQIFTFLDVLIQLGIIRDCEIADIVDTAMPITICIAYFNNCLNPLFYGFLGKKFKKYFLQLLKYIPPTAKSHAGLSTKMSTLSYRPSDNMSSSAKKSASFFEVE

Rattus norvegicus [3] = assay: In vivo potency to inhibit the pressor response induced by angiotensin II (100ng/Kg, iv) in conscious normotensive rat at 6 hours after administration of 3 mg/kg, po; type: functional; settings: for inhibition in vivo at 3 mg/kg: Rattus norvegicus, po, 6 h
Rattus norvegicus [4] = assay: Compound was tested for antihypertensive effect in renal hypertensive rats at 1 mg/kg, po expressed as percent reduction in blood pressure; type: functional
Rattus norvegicus [5] = assay: Compound was tested for antihypertensive effect in renal hypertensive rats at 3 mg/kg, po expressed as percent reduction in blood pressure; type: functional
Rattus norvegicus [6] = assay: In vivo potency to inhibit the pressor response induced by angiotensin II (100ng/Kg, iv) in conscious normotensive rat at 24 hours after administration of 1 mg/kg, po; type: functional
Rattus norvegicus [7] = assay: In vivo potency to inhibit the pressor response induced by angiotensin II (100ng/Kg, iv) in conscious normotensive rat at 6 hours after administration of 1 mg/kg, po; type: functional
Rattus norvegicus [8] = assay: In vivo potency to inhibit the pressor response induced by angiotensin II (100ng/Kg, iv) in conscious normotensive rat at 6 hours after administration of 0.3 mg/kg, po; type: functional
Rattus norvegicus [9] = assay: In vivo potency to inhibit the pressor response induced by angiotensin II (100ng/Kg, iv) in conscious normotensive rat at 24 hours after administration of 0.3 mg/kg, po; type: functional
Rattus norvegicus [10] = assay: Compound was tested for antihypertensive effect in renal hypertensive rats at 10 mg/kg, po expressed as percent reduction in blood pressure; type: functional
Rattus norvegicus [11] = assay: Compound was tested for antihypertensive effect in renal hypertensive rats at 0.3 mg/kg, po expressed as percent reduction in blood pressure; type: functional
Rattus norvegicus [12] = assay: In vivo potency to inhibit the pressor response induced by angiotensin II (100ng/Kg, iv) in conscious normotensive rat at 24 hours after administration of 0.1 mg/kg, po
Rattus norvegicus [13] = assay: In vivo potency to inhibit the pressor response induced by angiotensin II (100ng/Kg, iv) in conscious normotensive rat at 6 hours after administration of 0.1 mg/kg, po
Rattus norvegicus [14] = assay: In vivo potency to inhibit the pressor responses induced by angiotensin II (100ng/kg, iv) in conscious normotensive rat at 3 mg/kg dose specified 24 hr after peroral administration; type: functional; settings: route oral
Rattus norvegicus [15] = assay: In vivo potency to inhibit the pressor responses induced by angiotensin II (100ng/kg, iv) in conscious normotensive rat at 10 mg/kg dose specified 24 hr after peroral administration; type: functional; settings: route oral
Rattus norvegicus [16] = assay: In vivo potency to inhibit the pressor responses induced by angiotensin II (100ng/kg, iv) in conscious normotensive rat at 3 mg/kg dose specified 6 hr upon peroral administration; type: functional; settings: route oral
Rattus norvegicus [17] = assay: In vivo potency to inhibit the pressor responses induced by angiotensin II (100ng/kg, iv) in conscious normotensive rat at 1 mg/kg dose specified 6 hr upon peroral administration; type: functional; settings: route oral
Rattus norvegicus [18] = assay: Antihypertensive effect as reduction in blood pressure in renal hypertensive rats at 3 mg/kg dose specified administered perorally; type: functional; set-up: scale not given: the % may be the effect or the level left; settings: route oral
Rattus norvegicus [19] = assay: In vivo potency to inhibit the pressor responses induced by angiotensin II (100ng/kg, iv) in conscious normotensive rat at 10 mg/kg dose specified 6 hr upon peroral administration; type: functional; settings: route oral
Rattus norvegicus [20] = assay: Antihypertensive effect as reduction in blood pressure in renal hypertensive rats at 10 mg/kg dose specified administered perorally; type: functional; set-up: scale not given: the % may be the effect or the level left; settings: route oral
Rattus norvegicus [21] = assay: In vivo potency to inhibit the pressor responses induced by angiotensin II (100ng/kg, iv) in conscious normotensive rat at 1 mg/kg dose specified 24 hr after peroral administration; type: functional; settings: route oral

SMILES: CCc1nn(Cc2ccc(-c3ccccc3-c3nn[nH]n3)cc2)/c(=N/C(=O)c2ccccc2)s1
inhibition in vivo at 3 mg/kg (Rattus norvegicus [1]): -0.4%
pIC50 [2]: 7.43
inhibition in vivo at 3 mg/kg (Rattus norvegicus [3]): 4.9%

SMILES: CCc1nn(Cc2ccc(-c3ccccc3-c3nn[nH]n3)cc2)/c(=N/C(=O)c2ccccc2Cl)s1
inhibition in vivo at 3 mg/kg (Rattus norvegicus [1]): -11.3%
pIC50 [2]: 8.44
Reduction (Rattus norvegicus [10]): 20.2%
inhibition in vivo at 3 mg/kg (Rattus norvegicus [3]): 21.3%

SMILES: CCc1nn(Cc2ccc(-c3ccccc3-c3nn[nH]n3)cc2)/c(=N/C(=O)C2=C(C(=O)[O-])CCC2)s1.[K+]
Reduction (Rattus norvegicus [11]): 27.2%
Reduction (Rattus norvegicus [4]): 38.4%
Inhibition (Rattus norvegicus [12]): -0.7%
Inhibition (Rattus norvegicus [6]): 57%
Inhibition (Rattus norvegicus [7]): 72.1%
Inhibition (Rattus norvegicus [13]): 11.4%
Inhibition (Rattus norvegicus [8]): 45.4%
Inhibition (Rattus norvegicus [9]): 20.7%

SMILES: CCCCc1nc(Cl)c(CO)n1Cc1ccc(-c2ccccc2-c2nnn[n-]2)cc1.[K+] [LOSARTAN POTASSIUM]
inhibition in vivo at 3 mg/kg (Rattus norvegicus [14]): 27.9%
inhibition in vivo at 10 mg/kg (Rattus norvegicus [15]): 57.4%
inhibition in vivo at 3 mg/kg (Rattus norvegicus [16]): 50.1%
inhibition in vivo at 1 mg/kg (Rattus norvegicus [17]): 19.3%
Activity (Rattus norvegicus [18]): 27.4%
inhibition in vivo at 10 mg/kg (Rattus norvegicus [19]): 74.2%
Activity (Rattus norvegicus [20]): 40.4%
inhibition in vivo at 1 mg/kg (Rattus norvegicus [21]): 7.3%

Now from value to molecule, other results behind:

pIC50 [2]: 9.36
SMILES: CCc1nn(Cc2ccc(-c3ccccc3-c3nn[nH]n3)cc2)/c(=N/C(=O)C2=C(C(=O)O)CCC2)s1
Inhibition (Rattus norvegicus [1]): 63.1%
Inhibition (Rattus norvegicus [3]): 39.5%
Reduction (Rattus norvegicus [4]): 33.5%
Reduction (Rattus norvegicus [5]): 44.3%
Inhibition (Rattus norvegicus [6]): 36.6%
Inhibition (Rattus norvegicus [7]): 36.4%
Inhibition (Rattus norvegicus [8]): 22.4%
inhibition in vivo at 0.3 mg/kg (Rattus norvegicus [9]; Rattus norvegicus, po, 24 h): 15%

pIC50 [2]: 8.19
SMILES: CCc1nn(Cc2ccc(-c3ccccc3-c3nn[nH]n3)cc2)/c(=N/C(=O)C2CC2)s1
inhibition in vivo at 3 mg/kg (Rattus norvegicus [1]): -12.4%
inhibition in vivo at 3 mg/kg (Rattus norvegicus [3]): 7.8%

pIC50 [2]: 9.18
SMILES: CCc1nn(Cc2ccc(-c3ccccc3-c3nn[nH]n3)cc2)/c(=N/C(=O)c2ccccc2C(=O)O)s1
inhibition in vivo at 3 mg/kg (Rattus norvegicus [1]): 23.2%
Reduction (Rattus norvegicus [10]): 33.8%
inhibition in vivo at 3 mg/kg (Rattus norvegicus [3]): 48.1%
Reduction (Rattus norvegicus [5]): 25.1%

pIC50 [2]: 8.14
SMILES: CCc1nn(Cc2ccc(-c3ccccc3-c3nn[nH]n3)cc2)/c(=N/C(C)=O)s1
inhibition in vivo at 3 mg/kg (Rattus norvegicus [1]): -10.3%
inhibition in vivo at 3 mg/kg (Rattus norvegicus [3]): 11.3%
